In patent US8383637B2, “2-amino-quinazoline derivatives useful as inhibitors of β-secretase (BACE)” (Jansssen Pharmaceutica N.V., priority 2004, dated 2013):

Biological target: T1, β-secretase(BACE) (Homo sapiens, UniProt P56817)
T1 construct: purchased Panvera
Test: BACE FS1% Inhibition Assay
Assay type: biochemical
Conditions: FS1 substrate; for inhibition at 0.3 µM / inhibition at 1 µM / inhibition at 3 µM: read-out: % Inhibition (FS)
Description: BACE FS1% Inhibition Assay The following reagents were used in this assay: sodium acetate, PEG8000 (Sigma), DMSO, HEPES, FS1 substrate [[…]] […] The FS1-substrate stock solution was prepared in DMSO as a 10 mg/mL solution. The FS1-substrate working solution was prepared by diluting the 10 mg/mL stock solution with substrate assay buffer to a final concentration of 300 μg/mL. The β-secretase (BACE) working solution was prepared by diluting a 0.83 mg/mL BACE stock solution with enzyme assay buffer to a final concentration of 4 μg/mL. Test compounds were dissolved in DMSO to 10 mM. […] The screening procedure for this assay was as follows: 15 μL of BACE working solution was pipetted into each well of a 96-well plate. To each well was then pipetted 2 μL of test compound at the selected concentration. Test compound and BACE were then mixed with a pipettor and incubated for 20 min at room temperature. To each well was then added 10 μL of the FS1 substrate working solution. The plates were then incubated for 1 hour at room temperature. […] The procedure for the blank was as follows. 15 μL of assay buffer was pipetted into each well to be used as a blank control. To each well was then added 2 μL of vehicle and 10 μL of FS1-substrate working solution. The plates were then incubated for 1 hour at room temperature. […] The procedure for the positive control was as follows: 15 μL of BACE working solution was pipetted into each well to be used as a positive control. To each well was then pipetted 2 μL of vehicle. Vehicle and BACE were then mixed with a pipettor and incubated for 20 min at room temperature. To each well was then added 10 μL of the FS1 substrate working solution. The plates were then incubated for 1 hour at room temperature. […] For test compounds, % inhibition was determined at each concentration as follows: [formula]

T1 sequence (P56817 46-501): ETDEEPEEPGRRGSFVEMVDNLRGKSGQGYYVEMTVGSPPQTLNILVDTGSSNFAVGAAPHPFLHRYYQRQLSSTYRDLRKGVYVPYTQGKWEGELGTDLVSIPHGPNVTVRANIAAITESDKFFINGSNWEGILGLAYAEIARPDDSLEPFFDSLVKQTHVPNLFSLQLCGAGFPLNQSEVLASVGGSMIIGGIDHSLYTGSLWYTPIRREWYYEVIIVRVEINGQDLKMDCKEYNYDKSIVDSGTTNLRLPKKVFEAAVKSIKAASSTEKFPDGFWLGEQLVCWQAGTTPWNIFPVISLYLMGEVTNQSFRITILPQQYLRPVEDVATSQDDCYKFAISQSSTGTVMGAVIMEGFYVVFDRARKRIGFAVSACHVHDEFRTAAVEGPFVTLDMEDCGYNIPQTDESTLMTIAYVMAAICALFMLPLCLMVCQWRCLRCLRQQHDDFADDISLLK

| Structure (SMILES) | % Inhibition (FS) 3 μM (3 μM test compound) | % Inhibition (FS) 0.3 μM (0.3 μM test compound) | % Inhibition (FS) 1 μM (1 μM test compound) | further results |
| --- | --- | --- | --- | --- |
| CC(C)(C)c1ccc(C(=O)NCCN2Cc3cc(Oc4ccccc4)ccc3N=C2N)cc1 [Compound 156] | <30% |  |  | % Inhibition (FS) 10 μM (10 μM test compound): 40% |
| NC1=Nc2ccc(-c3ccc(Cl)cc3)cc2CN1CCNC(=O)C1CCCCC1 [Compound 626] | 56% | <30% | <30% |  |
| NC1=Nc2ccc(-c3cccc(C(F)(F)F)c3)cc2CN1CCNC(=O)CC1CCCC1 [Compound 584] | 56% | <30% | <30% |  |
| CCc1ccccc1-c1ccc2c(c1)CN(Cc1cccc(C(=O)N(C)C3CCCCC3)c1)C(N)=N2 [Compound 320] | <30% | −31% | <30% |  |
| CC(C)CCC(=O)N1CCCC(N2Cc3cc(Oc4ccccc4)ccc3N=C2N)C1 (centres unmarked) [Compound 613] | <30% | 36% | 31% |  |
| Cc1ccccc1-c1ccc2c(c1)CN(CCNC(=O)CCC(F)(F)F)C(N)=N2 [Compound 678] |  |  |  | % Inhibition (FS) (0.3 μM test compound): 51%; % Inhibition (FS) (1 μM test compound): 88%; % Inhibition (FS) (3 μM test compound): 99% |
| CCCC(=O)NCCN1Cc2cc(-c3cnc4ccccc4c3)ccc2N=C1N [Compound 673] |  |  |  | % Inhibition (FS) (0.3 μM test compound): 34%; % Inhibition (FS) (1 μM test compound): <30%; % Inhibition (FS) (3 μM test compound): <30% |
| COc1ccc(C)cc1-c1ccc2c(c1)CN(CCNC(=O)C1CCCCC1)C(N)=N2 [Compound 630] | 48% | <30% | <30% |  |
| Cc1ccccc1-c1ccc2c(c1)CN(CCNC(=O)C1CCC1)C(N)=N2 [Compound 656] | 104% | 56% | 87% |  |
| CC(C)c1ccccc1Oc1ccc2c(c1)CN(CCC(=O)NC1C3CC4CC(C3)CC1C4)C(N)=N2 (centres unmarked) [Compound 466] | 53% | <30% | <30% |  |
| COc1ccccc1-c1ccc2c(c1)CN([C@@H](CCC(=O)N(C)Cc1cc(C)no1)C1CCCCC1)C(N)=N2 [Compound 718] |  |  |  | % Inhibition (FS) (0.3 μM test compound): <30%; % Inhibition (FS) (1 μM test compound): 30%; % Inhibition (FS) (3 μM test compound): 114% |
| CN(C(=O)CC[C@@H](C1CCCCC1)N1Cc2cc(Oc3ccccc3)ccc2N=C1N)C1CCC2(CC1)OCCO2 [Compound 710] |  |  |  | % Inhibition (FS) (0.3 μM test compound): <30%; % Inhibition (FS) (1 μM test compound): 68%; % Inhibition (FS) (3 μM test compound): 126% |
| COc1ccccc1-c1ccc2c(c1)CN(CCNC(=O)CCCN)C(N)=N2 [Compound 494] | <30% | <30% | <30% |  |
| CC(C)(C)NS(=O)(=O)c1ccccc1-c1ccc2c(c1)CN(CCNC(=O)C1CCCCC1)C(N)=N2 [Compound 542] | 73% | <30% | <30% |  |
| CN(Cc1csc(-c2ccccc2)n1)C(=O)CC[C@@H](C1CCCCC1)N1Cc2cc(-c3ccccc3F)ccc2N=C1N [Compound 722] |  |  |  | % Inhibition (FS) (0.3 μM test compound): 35%; % Inhibition (FS) (1 μM test compound): 35%; % Inhibition (FS) (3 μM test compound): 78% |
| CN(C(=O)c1cccc(CN2Cc3cc(Oc4ccccc4-n4cccc4)ccc3N=C2N)c1)C1CCCCC1 [Compound 471] | 38% | <30% | <30% |  |
| NC1=Nc2ccc(Oc3ccccc3)cc2CN1Cc1cccc(N)c1 [Compound 811] |  |  |  | inhibition at 0.3 µM (0.3 μM test compound): < 30%; inhibition at 1 µM (1 μM test compound): < 30%; inhibition at 3 µM (3 μM test compound): < 30% |
| Cc1cc(C(=O)NCCN2Cc3cc(-c4ccccc4)ccc3N=C2N)c(C)o1 [Compound 586] | 59% | <30% | <30% |  |
| CN(C(=O)c1cccc(CN2Cc3cc(Nc4ccc(N5CCOCC5)cc4)ccc3N=C2N)c1)C1CCCCC1 [Compound 439] | <30% | <30% | <30% |  |
| CC(C)c1ccc(Sc2ccc3c(c2)CN(Cc2cccc(C(=O)N(C)C4CCCCC4)c2)C(N)=N3)cc1 [Compound 407] | 48% | <30% | <30% |  |
| CCCC(=O)NCCN1Cc2cc(-c3cncnc3)ccc2N=C1N [Compound 569] | <30% | <30% | <30% |  |

| Structure (SMILES) | % Inhibition (FS) 3 μM (3 μM test compound) | % Inhibition (FS) 0.3 μM (0.3 μM test compound) | % Inhibition (FS) 1 μM (1 μM test compound) | further results |
| --- | --- | --- | --- | --- |
| COc1ccccc1-c1ccc2c(c1)CN([C@@H](CCC(=O)N(C)Cc1cc(-c3ccccc3)on1)C1CCCCC1)C(N)=N2 [Compound 719] |  |  |  | % Inhibition (FS) (0.3 μM test compound): 31%; % Inhibition (FS) (1 μM test compound): <30%; % Inhibition (FS) (3 μM test compound): 81% |
| NC1=Nc2ccc(Br)cc2CN1CCC(=O)NC12CC3CC(CC(C3)C1)C2 [Compound 804] |  |  |  | inhibition at 0.3 µM (0.3 μM test compound): < 30%; inhibition at 1 µM (1 μM test compound): < 30%; inhibition at 3 µM (3 μM test compound): < 30% |
| CN(C(=O)c1cccc(CN2Cc3cc(Sc4cccc5ccccc45)ccc3N=C2N)c1)C1CCCCC1 [Compound 414] | 27% | <30% | <30% |  |
| CN(C(=O)c1cccc(CN2Cc3cc(-c4ccncc4)ccc3N=C2N)c1)C1CCCCC1 [Compound 168] | <30% | <30% | <30% |  |
| CC(=O)Nc1cccc(-c2ccc3c(c2)CN(Cc2cccc(C(=O)N(C)C4CCCCC4)c2)C(N)=N3)c1 [Compound 166] | 74% | <30% | 37% |  |
| CC(C)(C)OC(=O)N1CCC(CN2Cc3cc(Oc4ccccc4)ccc3N=C2N)CC1 [Compound 509] | 41% | <30% | <30% |  |
| CNC(=O)C1CCC(N(C)C(=O)CCC(C2CCCCC2)N2Cc3cc(Oc4ccccc4)ccc3N=C2N)CC1 (centres unmarked) [Compound 765] |  |  |  | % Inhibition (FS) (0.3 μM test compound): <30%; % Inhibition (FS) (1 μM test compound): 56%; % Inhibition (FS) (3 μM test compound): 97% |
| CCCCCCCCC(CCC(=O)N(C)C1CCCCC1)N1Cc2cc(Oc3ccccc3)ccc2N=C1N (centres unmarked) [Compound 210] | <30% | <30% | <30% |  |
| CC(=O)N1CCC(C(=O)NCCN2Cc3cc(-c4ccccc4)ccc3N=C2N)CC1 [Compound 702] |  |  |  | % Inhibition (FS) (0.3 μM test compound): <30%; % Inhibition (FS) (1 μM test compound): <30%; % Inhibition (FS) (3 μM test compound): <30% |
| NC1=Nc2ccc(Oc3ccccc3)cc2CN1C1CCN(C(=O)C23CC4CC(CC(C4)C2)C3)CC1 [Compound 524] | 44% | <30% | <30% |  |
| CC(C)(C)C(=O)NCCN1Cc2cc(-c3ccncc3)ccc2N=C1N [Compound 573] | <30% | <30% | <30% |  |
| CN(C(=O)c1cccc(CN2Cc3cc(Nc4ccc(C5CCCCC5)cc4)ccc3N=C2N)c1)C1CCCCC1 [Compound 437] | 38% | <30% | <30% |  |
| CCCc1cccc(C)c1Oc1ccc2c(c1)CN(Cc1cccc(C(=O)N(C)C3CCCCC3)c1)C(N)=N2 [Compound 482] | 43% | <30% | <30% |  |
| N#Cc1cccc(C(=O)NCCN2Cc3cc(Br)ccc3N=C2N)c1 [Compound 807] |  |  |  | inhibition at 0.3 µM (0.3 μM test compound): < 30%; inhibition at 1 µM (1 μM test compound): < 30%; inhibition at 3 µM (3 μM test compound): < 30% |
| NC1=Nc2ccc(Oc3ccccc3)cc2CN1[C@H](CNC(=O)C1CCCCC1)C1CCCCC1 [Compound 484] | 62% | <30% | <30% |  |
| NC1=Nc2ccc(-c3ccccc3F)cc2CN1CCNC(=O)C1CCC1 [Compound 642] | 96% | 37% | 63% |  |
| NC1=Nc2ccc(-c3cccc(C(F)(F)F)c3)cc2CN1CCNC(=O)Cc1ccccc1 [Compound 600] | 41% | <30% | <30% |  |
| Cc1cccc(Sc2ccc3c(c2)CN(Cc2cccc(C(=O)N(C)C4CCCCC4)c2)C(N)=N3)c1 [Compound 405] | 118% | 43% | 106% |  |
| COc1cccc(Nc2ccc3c(c2)CN(Cc2cccc(C(=O)N(C)C4CCCCC4)c2)C(N)=N3)c1 [Compound 433] | 88% | <30% | 33% |  |
| NC1=Nc2ccc(-c3ccccc3Cl)cc2CN1CCNC(=O)C1CCC(C(F)(F)F)CC1 (centres unmarked) [Compound 690] |  |  |  | % Inhibition (FS) (0.3 μM test compound): <30%; % Inhibition (FS) (1 μM test compound): <30%; % Inhibition (FS) (3 μM test compound): 52% |
| COc1cccc(CCNC(=O)CCC(C2CCCCC2)N2Cc3cc(F)ccc3N=C2N)c1 (centres unmarked) [Compound 810] |  |  |  | inhibition at 0.3 µM (0.3 μM test compound): < 30%; inhibition at 1 µM (1 μM test compound): < 30%; inhibition at 3 µM (3 μM test compound): < 30% |
